Assay results: patent US20070128217A1 (priority 2003, published 2007)

What was measured:
[1] = system: antibodies in sera from SARS patients (sera 1a, 1b, 2, 6, 37, 62, London, SARS-yellow, SARS-green); format: binding, human; design: Binding of serum 6 to linear peptides of protein X1 of SARS-CoV Urbani / Binding of serum 37 to linear peptides of protein X1 of SARS-CoV Urbani / Binding of serum 6 to looped/cyclic peptide (PEPSCAN-ELISA) / Binding of serum 37 to looped/cyclic peptide (PEPSCAN-ELISA) / Binding of serum 37 to looped/cyclic peptides of protein X1 of SARS-CoV Urbani / Binding of serum 6 to linear peptides of protein X2 / Binding of serum 37 to linear peptides of protein X2 / Binding of serum 37 to looped/cyclic peptides of protein X2 of SARS-CoV Urbani / Binding of serum 6 to linear peptides of protein M of SARS-CoV Urbani / Binding of serum 37 to linear peptides of protein M of SARS-CoV Urbani / Binding of serum 6 to looped/cyclic peptides of protein M of SARS-CoV Urbani / Binding of serum 37 to looped/cyclic peptides of protein M of SARS-CoV Urbani / Binding of serum 6 to linear peptides of protein X3 of SARS-CoV Urbani / Binding of serum 37 to linear peptides of protein X3 of SARS-CoV Urbani / Binding of serum 37 to looped/cyclic peptides of protein X3 of SARS-CoV Urbani / Binding of serum 6 to linear peptides of protein X4 of SARS-CoV Urbani / Binding of serum 37 to linear peptides of protein X4 of SARS-CoV Urbani / Binding of serum 37 to looped/cyclic peptides of protein X4 of SARS-CoV Urbani / Binding of serum 6 to linear peptides of protein X5 of SARS-CoV Urbani / Binding of serum 37 to linear peptides of protein X5 of SARS-CoV Urbani / Binding of serum 37 to looped/cyclic peptides of protein X5 of SARS-CoV Urbani / Binding of serum 6 to linear peptides of protein N of SARS-CoV Urbani / Binding of serum 37 to linear peptides of protein N of SARS-CoV Urbani / Binding of serum 6 to linear peptide (PEPSCAN-ELISA) / Binding of serum 1a to looped/cyclic peptides of protein N of SARS-CoV Urbani / Binding of serum 1b to looped/cyclic peptides of protein N of SARS-CoV Urbani / Binding of serum 2 to looped/cyclic peptides of protein N of SARS-CoV Urbani / Binding of serum 6 to looped/cyclic peptides of protein N of SARS-CoV Urbani / Binding of serum 37 to looped/cyclic peptides of protein N of SARS-CoV Urbani / Binding of serum 62 to looped/cyclic peptides of protein N of SARS-CoV Urbani / Binding of serum London to looped/cyclic peptides of protein N of SARS-CoV Urbani / Binding of serum SARS-green to looped/cyclic peptides of protein N of SARS-CoV Urbani: unit not given here
[2] = system: control sera (pooled serum of ten healthy LUMC hospital workers; commercial negative donor pooled serum from the Dutch bloodbank); format: binding, human; design: Binding of Control serum LUMC to linear peptides / Binding of Control serum Blood-bank to linear peptides / Binding of Control serum LUMC to looped peptides / Binding of Control Serum Blood-Bank to Looped peptides / Binding of Control serum LUMC to linear peptides of the protein M of SARS-CoV Urbani / Binding of Control serum Blood-bank to linear peptides of the protein M of SARS-CoV Urbani / Binding of Control serum LUMC to looped peptides of the protein M of SARS-CoV Urbani / Binding of Control Serum Blood-Bank to Looped peptides of the protein M of SARS-CoV Urbani: unit not given here
[3] = system: rabbit serum obtained by immunizing a rabbit with the SARS-CoV strain Frankfurt 1; format: binding; design: Binding of a rabbit serum to linear peptides / Binding of a rabbit serum to looped peptides / Rabbit serum linear peptides / Rabbit serum looped peptides / Binding of a rabbit serum to linear peptides of protein N of SARS-CoV Urbani (Rabbit serum linear peptides) / Binding of a rabbit serum to looped/cyclic peptides of protein N of SARS-CoV Urbani (Rabbit serum looped peptides): unit not given here

Row | Sequence | Binding of serum 1a to linear peptides of protein X1 of SARS-CoV Urbani [1] | Binding of serum 1a to looped/cyclic peptide (PEPSCAN-ELISA) [1] | Binding of serum 1b to linear peptides of protein X1 of SARS-CoV Urbani [1] | Binding of serum 1b to looped/cyclic peptide (PEPSCAN-ELISA) [1] | Binding of serum 2 to linear peptides of protein X1 of SARS-CoV Urbani [1] | Binding of serum 2 to looped/cyclic peptide (PEPSCAN-ELISA) [1] | Binding of serum 6 to linear peptides of protein X1 of SARS-CoV Urbani [1] | Binding of serum 6 to looped/cyclic peptide (PEPSCAN-ELISA) [1] | Binding of serum 37 to linear peptides of protein X1 of SARS-CoV Urbani [1] | Binding of serum 37 to looped/cyclic peptide (PEPSCAN-ELISA) [1] | Binding of serum 62 to linear peptides of protein X1 of SARS-CoV Urbani [1] | Binding of serum 62 to looped/cyclic peptide (PEPSCAN-ELISA) [1] | Binding of serum London to linear peptides of protein X1 of SARS-CoV Urbani [1] | Binding of serum London to looped/cyclic peptide (PEPSCAN-ELISA) [1] | Binding of Control Serum Blood-Bank to Looped peptides [2] | Binding of Control serum Blood-bank to linear peptides [2] | Binding of Control serum LUMC to linear peptides [2] | Binding of Control serum LUMC to looped peptides [2] | Binding of a rabbit serum to linear peptides [3] | Binding of a rabbit serum to looped peptides [3] | other results
1 | LLVAAGMEAQFLYLY | 0.8 | 0.6 | 0.7 | 0.5 | 0.6 | 0.6 | 0.5 | 0.3 | 0.6 | 0.6 | 0.5 | 0.6 | 0.3 | 0.2 | 0.5 | 0.5 | 0.7 | 0.6 | 0.2 | 0.5 | Binding of serum SARS-green to linear peptides of protein X1 of SARS-CoV Urbani [1]: 0.1; Binding of serum SARS-green to looped/cyclic peptide (PEPSCAN-ELISA) [1]: 0.4; Binding of serum SARS-yellow to linear peptides of protein X1 of SARS-CoV Urbani [1]: 0.4; Binding of serum SARS-yellow to looped/cyclic peptide (PEPSCAN-ELISA) [1]: 0.5
2 | LPFGWLVIGVAFLAV | 0.8 | 0.5 | 0.6 | 0.3 | 0.7 | 0.4 | 0.5 | 0.3 | 0.7 | 0.6 | 0.8 | 0.6 | 0.3 | 0.2 | 0.5 | 0.7 | 0.7 | 0.4 | 2.0 | 0.5 | Binding of serum SARS-green to linear peptides of protein X1 of SARS-CoV Urbani [1]: 0.3; Binding of serum SARS-green to looped/cyclic peptide (PEPSCAN-ELISA) [1]: 0.3; Binding of serum SARS-yellow to linear peptides of protein X1 of SARS-CoV Urbani [1]: 0.7; Binding of serum SARS-yellow to looped/cyclic peptide (PEPSCAN-ELISA) [1]: 0.3
3 | LPFHRWHTMVQTCTP |  |  |  |  |  |  |  |  |  |  |  |  |  |  | 0.5 | 0.6 | 0.5 | 0.4 |  |  | Binding of serum 1a to linear peptides of protein X5 of SARS-CoV Urbani [1]: 0.8; Binding of serum 1a to looped/cyclic peptides of protein X5 of SARS-CoV Urbani [1]: 0.5; Binding of serum 1b to linear peptides of protein X5 of SARS-CoV Urbani [1]: 0.7; Binding of serum 1b to looped/cyclic peptides of protein X5 of SARS-CoV Urbani [1]: 0.4; Binding of serum 2 to linear peptides of protein X5 of SARS-CoV Urbani [1]: 0.9; Binding of serum 2 to looped/cyclic peptides of protein X5 of SARS-CoV Urbani [1]: 0.5; Binding of serum 6 to linear peptides of protein X5 of SARS-CoV Urbani [1]: 0.6; Binding of serum 6 to looped/cyclic peptides of protein X5 of SARS-CoV Urbani [1]: 0.3; Binding of serum 37 to linear peptides of protein X5 of SARS-CoV Urbani [1]: 0.8; Binding of serum 37 to looped/cyclic peptides of protein X5 of SARS-CoV Urbani [1]: 0.4; Binding of serum 62 to linear peptides of protein X5 of SARS-CoV Urbani [1]: 0.8; Binding of serum 62 to looped/cyclic peptides of protein X5 of SARS-CoV Urbani [1]: 0.3; Binding of serum London to linear peptides of protein X5 of SARS-CoV Urbani [1]: 0.9; Binding of serum London to looped/cyclic peptides of protein X5 of SARS-CoV Urbani [1]: 0.2; Binding of serum SARS-green to linear peptides of protein X5 of SARS-CoV Urbani [1]: 0.6; Binding of serum SARS-green to looped/cyclic peptides of protein X5 of SARS-CoV Urbani [1]: 0.3; Binding of serum SARS-yellow to linear peptides of protein X5 of SARS-CoV Urbani [1]: 0.4; Binding of serum SARS-yellow to looped/cyclic peptides of protein X5 of SARS-CoV Urbani [1]: 0.2; Rabbit serum linear peptides [3]: 0.5; Rabbit serum looped peptides [3]: 0.3
4 | LQELLIQQWIQFMMS |  |  |  |  |  |  |  |  |  |  |  |  |  |  | 0.6 | 0.5 | 0.3 | 0.6 | 0.3 | 0.3 | Binding of serum 1a to linear peptides of protein X2 [1]: 0.7; Binding of serum 1a to looped/cyclic peptides of protein X2 of SARS-CoV Urbani [1]: 0.6; Binding of serum 1b to linear peptides of protein X2 [1]: 0.6; Binding of serum 1b to looped/cyclic peptides of protein X2 of SARS-CoV Urbani [1]: 0.5; Binding of serum 2 to linear peptides of protein X2 [1]: 0.3; Binding of serum 2 to looped/cyclic peptides of protein X2 of SARS-CoV Urbani [1]: 0.3; Binding of serum 6 to linear peptides of protein X2 [1]: 0.3; Binding of serum 6 to looped/cyclic peptides of protein X2 of SARS-CoV Urbani [1]: 0.2; Binding of serum 37 to linear peptides of protein X2 [1]: 0.5; Binding of serum 37 to looped/cyclic peptides of protein X2 of SARS-CoV Urbani [1]: 0.4; Binding of serum 62 to linear peptides of protein X2 [1]: 0.5; Binding of serum 62 to looped/cyclic peptides of protein X2 of SARS-CoV Urbani [1]: 0.6; Binding of serum London to linear peptides of protein X2 [1]: 0.4; Binding of serum London to looped/cyclic peptides of protein X2 of SARS-CoV Urbani [1]: 0.2; Binding of serum SARS-green to linear peptides of protein X2 [1]: 0.5; Binding of serum SARS-green to looped/cyclic peptides of protein X2 of SARS-CoV Urbani [1]: 0.2; Binding of serum SARS-yellow to linear peptides of protein X2 [1]: 0.6; Binding of serum SARS-yellow to looped/cyclic peptides of protein X2 of SARS-CoV Urbani [1]: 0.3
